# Measurements taken from ChEMBL document CHEMBL1201862, “PubChem BioAssay data set” (2004).
# Active and inactive are the calls of the source.
# Legend:
# [1] = target: NACHT, LRR and PYD domains-containing protein 3 (Homo sapiens, UniProt Q96P20); experiment: NALP3 inhibitors in yeast, dose response, luminescent (AID 488799); type: functional
# [2] = test system: Staphylococcus aureus; experiment: Inhibitors of Bacterial Quorum Sensing Structure Activity Relationship (SAR) Analysis: Dose Response Assay. [Related pubchem assays: 700, 527 ]; type: functional, organism-based
# [3] = target: T1, Leucine aminopeptidase (Plasmodium falciparum 3D7, UniProt Q8IL11); experiment: P. falciparum M17LAP inhibitors, primary screen, biochemical, fluorogenic H-Leu-NHMec substrate, 1536-well (AID 1619); type: functional
# T1 sequence (Q8IL11 whole entry): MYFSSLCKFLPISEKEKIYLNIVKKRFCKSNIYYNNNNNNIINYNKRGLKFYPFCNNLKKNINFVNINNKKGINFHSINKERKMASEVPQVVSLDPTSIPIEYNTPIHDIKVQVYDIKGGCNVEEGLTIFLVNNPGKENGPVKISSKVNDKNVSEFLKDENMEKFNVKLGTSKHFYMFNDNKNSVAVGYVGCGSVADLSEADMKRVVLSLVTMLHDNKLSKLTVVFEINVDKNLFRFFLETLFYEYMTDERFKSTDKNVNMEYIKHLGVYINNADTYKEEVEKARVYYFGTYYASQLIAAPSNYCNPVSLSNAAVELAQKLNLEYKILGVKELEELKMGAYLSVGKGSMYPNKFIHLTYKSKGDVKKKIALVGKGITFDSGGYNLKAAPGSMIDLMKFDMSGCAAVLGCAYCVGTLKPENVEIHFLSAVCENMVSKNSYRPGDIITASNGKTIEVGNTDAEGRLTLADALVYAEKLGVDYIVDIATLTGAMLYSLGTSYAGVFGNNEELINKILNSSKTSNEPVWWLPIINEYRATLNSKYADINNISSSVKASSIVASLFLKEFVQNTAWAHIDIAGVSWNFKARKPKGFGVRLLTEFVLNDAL
# [4] = mitochondrial function rescue without frataxin homolog – Friedreich's ataxia, plus single-dose screen, dose response (AID 1465); type: functional;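 further: yeast depleted of Yfh1p frataxin homolog grown on glycerol needing respiration; WST-1 tetrazolium dye reduction as measure of cellular dehydrogenase metabolic activity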
# [5] = target: G-protein coupled receptor 35 (Homo sapiens, UniProt Q9HC97); experiment: inhibition of zaprinast-stimulated GPR35 beta-arrestin translocation – imaging, U2OS, beta-arrestin-GFP, zaprinast agonist, primary screen (AID 2058); type: functional;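 further: antagonist potency meaning inhibition of agonist-induced arrestin redistribution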
# [6] = target: Beta-lactamase (Salmonella choleraesuis (strain SC-B67), UniProt Q5J463)
# [7] = target: Beta-lactamase (Pseudomonas aeruginosa, UniProt Q79MP6);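 further: biochemical dose-response test of metallo-beta-lactamase enzyme inhibition, read out by epi-absorbance; purified recombinant IMP-1 metallo-beta-lactamase with nitrocefin as substrate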
# [8] = target: T2, Calpain-2 catalytic subunit (Sus scrofa, UniProt P43367); experiment: m-calpain protease blockers, concentration series – biochemical, fluorogenic peptide substrate, dose response (AID 1420); type: functional
# T2 sequence (P43367 whole entry): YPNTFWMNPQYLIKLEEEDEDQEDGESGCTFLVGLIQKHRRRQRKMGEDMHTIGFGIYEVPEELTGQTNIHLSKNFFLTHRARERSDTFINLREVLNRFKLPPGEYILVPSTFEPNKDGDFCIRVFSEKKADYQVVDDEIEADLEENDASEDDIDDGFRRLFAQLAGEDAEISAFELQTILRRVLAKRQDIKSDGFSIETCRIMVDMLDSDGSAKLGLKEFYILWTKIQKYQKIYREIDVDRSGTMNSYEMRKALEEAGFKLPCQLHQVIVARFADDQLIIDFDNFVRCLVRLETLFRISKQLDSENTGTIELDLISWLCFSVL
# [9] = target: Protein Rev (Human immunodeficiency virus type 1 group M subtype B (isolate HXB2)(HIV-1), UniProt P04618); experiment: blockers of HIV Rev/RRE RNA complex – biochemical, fluorescence polarization, HIV-1, dose response (AID 434976); parameters: species or system Human immunodeficiency virus 1
# [10] = target: T3, Polyadenylate-binding protein 1 (Homo sapiens, UniProt P11940); experiment: MLLE binding blockers, Cy5 peptide tracer – biochemical, fluorescence polarization, Cy5-PAM2 peptide, secondary, miRNA deadenylation inhibitor project, dose response (AID 602260); type: functional; conditions: read-out: IC50_Mean
# [11] = target: T3, Polyadenylate-binding protein 1; experiment: MLLE domain peptide-binding blockers, IC50 – biochemical, fluorescence polarization, FITC-PAM2 peptide, dose response (AID 602259); type: functional; conditions: read-out: IC50_Mean
# [12] = target: Female germline-specific tumor suppressor gld-1 (Caenorhabditis elegans, UniProt Q17339); experiment: blockers of GLD-1/TGE RNA complex formation – biochemical, fluorescence polarization, C. elegans, dose response (AID 2802);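 further: fluorescence polarization of labeled TGE RNA bound by purified gld-1 protein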
# [13] = target: Dual specificity protein phosphatase 3 (Homo sapiens, UniProt P51452); experiment: inhibition constants for human DUSP3 – biochemical, colorimetric, SAR follow-up (AID 2004)
# [14] = target: Potassium voltage-gated channel subfamily KQT member 2 (Rattus norvegicus, UniProt O88943); experiment: potentiation of rat KCNQ2 current – cell-based, retigabine-insensitive compounds, dose response (AID 2654); type: functional
# [15] = test system: INS1; experiment: INS-1E survival protection against cytokine death – cell-based, luminescence, retest, dose response (AID 449756); type: functional; conditions: Rattus norvegicus;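 further: cell death triggered by IL-1 beta plus TNF-alpha plus IFN-gamma mixture; protective hits raise ATP signal compared with cytokine alone wells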
# [16] = Luminescence Cell-Based Dose Retest to Confirm Inhibitors of Cancer Stem Cells. [Related pubchem assays (depositor defined):AID2717, AID2721]; type: functional; conditions: Homo sapiens
# [17] = target: Neurotensin receptor type 1 (Homo sapiens, UniProt P30989); type: functional;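 further: Image-based confirmatory dose-response assay measuring agonist activity at NTR1; NTR1-expressing U2OS osteosarcoma cells imaged for beta-arrestin GFP spot formation; agonist potency where compounds increase beta-arrestin recruitment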
# [18] = target: Nucleotide-binding oligomerization domain-containing protein 1 (Homo sapiens, UniProt Q9Y239); experiment: blockers of NOD1 pathway activity – revised, SAR follow-up (AID 2333); type: functional
# [19] = target: Nucleotide-binding oligomerization domain-containing protein 2 (Homo sapiens, UniProt Q9HC29); experiment: PubChem AID 2334; type: functional
# [20] = target: Tumor necrosis factor (Homo sapiens, UniProt P01375); experiment: analog potency on TNFa NF-kB signaling – cell-based, revised, SAR follow-up (AID 2337); type: functional
# [21] = test system: HEK293; experiment: cells; conditions: Homo sapiens;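 further: cells exposed to compound for 14 hours overnight before viability readout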
# T3 sequence (P11940 whole entry, the tested form may be a part): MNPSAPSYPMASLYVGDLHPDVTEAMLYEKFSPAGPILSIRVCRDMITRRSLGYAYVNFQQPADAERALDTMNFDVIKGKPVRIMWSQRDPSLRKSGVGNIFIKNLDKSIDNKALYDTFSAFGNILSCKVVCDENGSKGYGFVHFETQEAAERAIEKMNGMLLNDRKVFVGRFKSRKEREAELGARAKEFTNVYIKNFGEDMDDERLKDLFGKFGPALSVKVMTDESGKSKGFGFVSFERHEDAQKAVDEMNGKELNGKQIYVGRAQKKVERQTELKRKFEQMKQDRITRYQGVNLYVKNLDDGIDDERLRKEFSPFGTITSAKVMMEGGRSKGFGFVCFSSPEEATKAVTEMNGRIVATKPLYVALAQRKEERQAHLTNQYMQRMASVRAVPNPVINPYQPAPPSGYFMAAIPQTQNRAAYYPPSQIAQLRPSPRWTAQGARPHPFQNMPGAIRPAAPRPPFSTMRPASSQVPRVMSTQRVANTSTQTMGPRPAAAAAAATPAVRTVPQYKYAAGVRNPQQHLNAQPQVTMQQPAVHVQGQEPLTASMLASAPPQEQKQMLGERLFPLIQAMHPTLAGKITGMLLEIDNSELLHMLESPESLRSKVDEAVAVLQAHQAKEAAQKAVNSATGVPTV
# Dual specificity protein phosphatase 3, sequence (P51452 whole entry): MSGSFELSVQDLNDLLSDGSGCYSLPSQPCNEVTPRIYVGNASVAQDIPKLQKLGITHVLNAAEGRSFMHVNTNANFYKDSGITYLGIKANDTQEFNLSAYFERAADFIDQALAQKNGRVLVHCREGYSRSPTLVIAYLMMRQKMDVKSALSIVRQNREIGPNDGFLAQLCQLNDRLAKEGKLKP
# Nucleotide-binding oligomerization domain-containing protein 1, sequence (Q9Y239 whole entry, the tested form may be a part): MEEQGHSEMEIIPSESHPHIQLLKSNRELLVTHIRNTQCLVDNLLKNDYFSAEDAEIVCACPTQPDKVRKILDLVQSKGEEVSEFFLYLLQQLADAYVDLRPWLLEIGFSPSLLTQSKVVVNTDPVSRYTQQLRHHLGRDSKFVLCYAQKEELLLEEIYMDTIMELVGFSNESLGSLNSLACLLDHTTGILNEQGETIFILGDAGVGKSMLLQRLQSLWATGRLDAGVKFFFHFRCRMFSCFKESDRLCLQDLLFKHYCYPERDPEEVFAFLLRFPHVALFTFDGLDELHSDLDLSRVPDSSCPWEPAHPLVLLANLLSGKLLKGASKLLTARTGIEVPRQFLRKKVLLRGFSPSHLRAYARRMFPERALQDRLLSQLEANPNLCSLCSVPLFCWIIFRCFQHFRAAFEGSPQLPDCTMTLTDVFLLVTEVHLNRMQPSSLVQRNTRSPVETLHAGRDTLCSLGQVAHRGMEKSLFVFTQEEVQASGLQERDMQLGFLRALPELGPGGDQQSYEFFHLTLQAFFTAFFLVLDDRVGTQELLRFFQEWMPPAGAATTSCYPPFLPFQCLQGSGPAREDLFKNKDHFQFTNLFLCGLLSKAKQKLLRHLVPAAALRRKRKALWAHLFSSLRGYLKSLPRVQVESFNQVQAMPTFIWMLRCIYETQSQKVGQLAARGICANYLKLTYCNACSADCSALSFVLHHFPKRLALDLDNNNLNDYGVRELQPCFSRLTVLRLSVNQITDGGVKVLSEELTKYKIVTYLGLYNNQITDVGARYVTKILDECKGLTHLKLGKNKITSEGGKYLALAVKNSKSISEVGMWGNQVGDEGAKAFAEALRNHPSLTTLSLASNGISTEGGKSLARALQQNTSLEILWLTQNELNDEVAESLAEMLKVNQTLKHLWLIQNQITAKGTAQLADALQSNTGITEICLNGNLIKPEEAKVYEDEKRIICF
# Female germline-specific tumor suppressor gld-1, sequence (Q17339 whole entry): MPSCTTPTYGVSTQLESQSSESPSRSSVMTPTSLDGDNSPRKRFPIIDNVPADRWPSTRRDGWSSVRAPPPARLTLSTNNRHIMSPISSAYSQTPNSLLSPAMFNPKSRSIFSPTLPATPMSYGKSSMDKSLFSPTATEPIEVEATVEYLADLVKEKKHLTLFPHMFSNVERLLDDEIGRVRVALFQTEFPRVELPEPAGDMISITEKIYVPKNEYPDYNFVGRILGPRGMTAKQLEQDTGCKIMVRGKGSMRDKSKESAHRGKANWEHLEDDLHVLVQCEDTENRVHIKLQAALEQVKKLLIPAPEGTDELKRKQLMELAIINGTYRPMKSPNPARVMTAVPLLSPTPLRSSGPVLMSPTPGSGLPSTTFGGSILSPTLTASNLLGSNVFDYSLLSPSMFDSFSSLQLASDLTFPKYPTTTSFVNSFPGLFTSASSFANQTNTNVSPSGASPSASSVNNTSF
# G-protein coupled receptor 35, sequence (Q9HC97 whole entry): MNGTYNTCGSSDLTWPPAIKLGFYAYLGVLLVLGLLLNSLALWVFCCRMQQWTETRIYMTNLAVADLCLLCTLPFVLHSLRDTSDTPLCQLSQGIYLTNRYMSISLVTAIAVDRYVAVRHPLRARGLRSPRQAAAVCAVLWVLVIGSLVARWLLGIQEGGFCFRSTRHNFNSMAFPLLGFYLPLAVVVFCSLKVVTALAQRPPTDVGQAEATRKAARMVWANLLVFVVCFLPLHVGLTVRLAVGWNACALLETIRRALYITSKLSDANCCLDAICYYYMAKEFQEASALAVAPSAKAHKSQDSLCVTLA
# Neurotensin receptor type 1, sequence (P30989 whole entry, the tested form may be a part): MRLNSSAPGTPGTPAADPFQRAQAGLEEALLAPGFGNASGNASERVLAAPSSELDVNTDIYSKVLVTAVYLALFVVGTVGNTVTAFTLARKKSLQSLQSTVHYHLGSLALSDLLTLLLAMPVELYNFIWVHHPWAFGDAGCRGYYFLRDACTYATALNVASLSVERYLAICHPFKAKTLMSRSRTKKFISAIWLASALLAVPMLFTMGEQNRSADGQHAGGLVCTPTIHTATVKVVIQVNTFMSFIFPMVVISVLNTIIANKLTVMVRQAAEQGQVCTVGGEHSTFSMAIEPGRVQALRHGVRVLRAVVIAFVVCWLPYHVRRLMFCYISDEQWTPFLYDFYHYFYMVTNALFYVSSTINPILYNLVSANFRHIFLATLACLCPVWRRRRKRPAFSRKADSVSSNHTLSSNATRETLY
# Potassium voltage-gated channel subfamily KQT member 2, sequence (O88943 whole entry): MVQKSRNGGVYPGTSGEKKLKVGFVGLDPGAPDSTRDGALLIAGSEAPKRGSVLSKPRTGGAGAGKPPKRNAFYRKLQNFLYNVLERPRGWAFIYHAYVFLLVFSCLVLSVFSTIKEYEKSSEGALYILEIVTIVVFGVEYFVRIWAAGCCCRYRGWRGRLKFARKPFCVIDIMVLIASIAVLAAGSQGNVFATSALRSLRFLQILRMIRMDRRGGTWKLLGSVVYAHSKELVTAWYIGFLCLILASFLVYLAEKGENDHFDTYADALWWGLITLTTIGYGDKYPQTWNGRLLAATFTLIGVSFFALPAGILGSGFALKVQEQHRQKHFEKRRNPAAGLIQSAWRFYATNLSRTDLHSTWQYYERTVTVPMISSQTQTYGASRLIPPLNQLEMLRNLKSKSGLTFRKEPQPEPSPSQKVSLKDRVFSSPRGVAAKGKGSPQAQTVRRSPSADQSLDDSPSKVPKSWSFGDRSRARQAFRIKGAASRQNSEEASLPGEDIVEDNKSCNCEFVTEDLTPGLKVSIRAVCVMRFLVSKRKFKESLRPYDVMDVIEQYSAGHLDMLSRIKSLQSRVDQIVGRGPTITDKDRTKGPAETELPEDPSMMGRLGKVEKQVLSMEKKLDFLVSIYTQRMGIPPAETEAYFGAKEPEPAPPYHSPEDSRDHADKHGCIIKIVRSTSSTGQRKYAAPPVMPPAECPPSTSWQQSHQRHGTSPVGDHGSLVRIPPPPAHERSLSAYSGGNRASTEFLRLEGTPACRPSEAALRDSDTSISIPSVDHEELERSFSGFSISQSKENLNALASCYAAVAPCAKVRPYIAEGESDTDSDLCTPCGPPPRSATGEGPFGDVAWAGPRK
# Tumor necrosis factor, sequence (P01375 whole entry): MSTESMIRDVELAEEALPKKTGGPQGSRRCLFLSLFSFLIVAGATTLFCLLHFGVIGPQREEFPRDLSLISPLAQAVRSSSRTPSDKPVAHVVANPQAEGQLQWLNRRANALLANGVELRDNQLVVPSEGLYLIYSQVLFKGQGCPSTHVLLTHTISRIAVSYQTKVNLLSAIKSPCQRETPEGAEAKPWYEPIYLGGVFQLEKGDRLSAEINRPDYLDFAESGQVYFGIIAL
# Beta-lactamase (Pseudomonas aeruginosa, UniProt Q79MP6), sequence (Q79MP6 whole entry): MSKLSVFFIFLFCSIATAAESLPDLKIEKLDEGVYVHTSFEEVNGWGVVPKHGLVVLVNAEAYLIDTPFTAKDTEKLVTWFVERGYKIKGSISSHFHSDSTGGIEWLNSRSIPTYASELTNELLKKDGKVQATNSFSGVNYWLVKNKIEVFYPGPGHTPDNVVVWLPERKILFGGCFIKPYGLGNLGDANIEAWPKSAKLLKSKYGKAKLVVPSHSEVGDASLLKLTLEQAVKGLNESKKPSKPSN
# Beta-lactamase (Salmonella choleraesuis (strain SC-B67), UniProt Q5J463), sequence (Q5J463 whole entry): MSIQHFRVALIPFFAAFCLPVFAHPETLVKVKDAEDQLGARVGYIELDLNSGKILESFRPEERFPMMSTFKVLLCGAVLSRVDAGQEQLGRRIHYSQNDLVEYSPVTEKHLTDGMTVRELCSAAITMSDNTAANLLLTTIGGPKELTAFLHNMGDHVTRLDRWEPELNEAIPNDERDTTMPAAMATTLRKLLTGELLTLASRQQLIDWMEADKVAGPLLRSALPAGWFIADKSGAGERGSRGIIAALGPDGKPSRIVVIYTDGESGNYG
# Protein Rev, sequence (P04618 whole entry): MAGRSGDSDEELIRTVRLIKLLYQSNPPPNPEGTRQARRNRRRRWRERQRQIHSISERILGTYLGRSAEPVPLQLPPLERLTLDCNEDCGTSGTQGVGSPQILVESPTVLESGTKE
smiles,measurement,setting,value
COc1cccc(NC(=O)c2ccccc2)c1,IC50,[1],13.7 µM (active)
CC(=O)c1cc2c(cc1NC(=O)CN1CCN(C(c3ccccc3)c3ccccc3)CC1)OCO2,IC50,[2],1.51 µM (active)
CN1CCN(C2=CC3=CC(=C(C#N)C#N)CCC3CC2)CC1 (stereo unspecified),IC50,[3],100 µM (active)
same,EC50,[4],> 100 µM (active)
same,IC50,[5],2.76 µM (active)
same,IC50,[6],2.28 µM (active)
same,IC50,[7],3.5 µM (active)
same,IC50,[8],13.9 µM (not active)
COc1ccc2nc(N3CCCCC3)c(C#N)cc2c1,IC50,[9],14.8 µM (not active)
same,IC50,[10],> 66 µM (inactive)
same,IC50,[11],18.5 µM (active)
same,IC50,[12],6.28 µM (active)
CC(Oc1ccc2oc(-c3ccccc3)c(C(=O)O)c2c1)C(=O)O (stereo unspecified),Ki,[13],102 µM (inactive)
S=C(Nc1ccc(Nc2ccccc2)cc1)Nc1cccnc1,EC50,[14],11 µM (active)
COc1cc(OC)c2cc(C(=O)N/N=C/c3cccc(OC)c3O)[nH]c2c1,AC50,[15],3.8 µM (active)
same,AC50,[16],3.97 µM (active)
same,EC50,[17],19.3 µM (active)
N#Cc1ccc(C(=O)Nc2nc3ccccc3n2Cc2ccc(Cl)cc2)cc1,IC50,[18],> 20 µM (inactive)
same,IC50,[19],> 20 µM (inactive)
same,IC50,[20],> 20 µM (inactive)
same,IC50,[21],> 20 µM (inactive)
